Data on 1 compound can be found in patent publication US5491152A, “Derivatives of cyclic ethers and sulfides for the treatment of atherosclerosis” (The Du Pont Merck Pharmaceutical Company, priority 1994, dated 1996).

pIC50: −log10 of the molar value.

The target in assay [1] is T1, Acyl-CoA: Cholesterol Acyltransferase (ACAT) (Rattus norvegicus, UniProt Q7TQM4).
T1 construct: Microsomes were obtained by differential centrifugation; from tissue; host or cells: liver microsomes of male Sprague Dawley rats
T1 sequence (Q7TQM4 1-524): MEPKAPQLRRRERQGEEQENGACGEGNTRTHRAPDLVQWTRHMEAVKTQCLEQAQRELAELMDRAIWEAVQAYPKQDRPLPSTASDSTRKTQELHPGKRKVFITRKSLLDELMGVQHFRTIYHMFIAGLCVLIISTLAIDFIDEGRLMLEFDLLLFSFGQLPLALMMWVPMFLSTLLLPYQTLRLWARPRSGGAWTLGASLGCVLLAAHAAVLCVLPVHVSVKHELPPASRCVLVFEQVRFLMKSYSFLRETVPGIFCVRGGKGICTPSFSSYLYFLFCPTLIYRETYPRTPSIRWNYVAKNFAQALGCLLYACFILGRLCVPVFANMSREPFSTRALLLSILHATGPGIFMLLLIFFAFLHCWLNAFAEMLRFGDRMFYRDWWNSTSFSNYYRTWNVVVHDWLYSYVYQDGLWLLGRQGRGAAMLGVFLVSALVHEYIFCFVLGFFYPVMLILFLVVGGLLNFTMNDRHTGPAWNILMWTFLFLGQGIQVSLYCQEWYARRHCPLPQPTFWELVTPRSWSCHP
The assay is described as follows: Inhibition of Acyl-CoA: Cholesterol Acyltransferase (ACAT) in hepatic microsomes (In Vitro Assay). It is filed as biochemical, rat (male Sprague Dawley). The settings on record: 75 μM 14C-oleoyl-CoA, pH 7.4, 37° C., 15 min preincubation, 10 min. The procedure:
A. Assay of the Inhibition of Acyl-CoA: Cholesterol Acyltransferase (ACAT) in Hepatic Microsomes (In Vitro Assay)
The ability of the compounds to inhibit ACAT, the enzyme responsible for the intracellular synthesis of cholesteryl esters, was tested as follows. Male Sprague Dawley rats weighing 150-300 g, were fed rat chow ad libitum. The animals were fasted for twenty-four hours prior to being euthanized by CO2. The livers were perfused in situ with 50 ml of cold 0.25 sucrose, excised, and homogenized in three volumes of 0.1M phosphate buffer, pH 7.4, that contained 0.5 mM EDTA (ethylenediamine-tetraacetic acid), 1.0 mM glutathione, 0.25M sucrose and 20 mM leupeptin. Microsomes were obtained by differential centrifugation; the supernatant from an initial spin at 15,000× g for 15 minutes was centrifuged at 105,000× g for 1 hour to pellet the microsomes. The microsomes were suspended in 0.1M phosphate buffer, pH 7.4 with 1 mM GSH and stored at -70° C. Microsomes were used within one month of preparation.
The control assay in a final volume of 200 μl consisted of 200 μg of microsomal protein, 75 μM ^14 C-oleoyl-CoA (10,000 dpm/nmol) in 0.1M phosphate, pH 7.4, that contained 1 mM glutathione. Compounds were added in 5 μl of DMSO (dimethyl sulfoxide) and additional controls were run with DMSO only. All components, except the oleoyl-CoA, were preincubated for 15 min. at 37° C. prior to the initiation of the reaction by the addition of oleoyl-CoA. The assay was terminated after 10 min by the addition of 4 ml of chloroform:methanol (2:1, v/v). 20,000 dpm of ^3 H-cholesteryl oleate and 10 μg of unlabeled cholesteryl oleate and oleic acid were added as an internal standard and carriers, respectively. After allowing 10 min. for lipid extraction, the samples were centrifuged at 1,000× g for 10 min to separate the solvent layers. The chloroform layer containing the neutral lipids was spotted onto a Baker SI250-Pa silica gel TLC plate and the plate developed using a hexane:diethyl ether:acetic acid (170:30:1) v/v/v) mobile phase. The lipids were visualized by their interaction with iodine vapor and the cholesteryl ester spot was scraped into a scintillation vial and counted. The specific activity of ACAT in the control incubation averaged 260 pmol/min/mg microsomal protein. The data obtained are expressed as the concentration at which ACAT activity is inhibited by 50% (IC50).

A further assay relates to ACAT. The assay is described as follows: Systemic availability of ACAT inhibitors (Ex Vivo Assay): ACAT activity in livers from orally dosed rats. The arrangement: species or system rat (male (CD) Sprague Dawley). The settings on record: rat, oral gavage 10 mg/kg, days 1-3, livers taken 3 h after last dose; class symbols. The procedure: B. Assay for the Systemic Availability of ACAT Inhibitors (Ex Vivo Assay)
The inhibition of ACAT activity in livers obtained from rats orally dosed with an inhibitor was used as a determination of the compound's systemic availability. The ability of ACAT inhibitors to affect cholesterol esterification in livers obtained from dosed animals was tested as follows. This assay is also referred to herein as the Ex Vivo Assay. Male (CD) Sprague Dawley rats weighing from 190-210 g were fed purina lab chow ad libitum. Rats, three per group, were orally gavaged with 10 mg/kg of active ACAT inhibitor. The compounds were dissolved in ethanol (10% of final volume); a PEG solution (80 propylene glycol:20 polyethylene glycol 400, w:w) was added and the compound was mixed completely prior to dosing. A control group received the dosing vehicle alone. The animals were dosed once on Day 1 (am), twice on Day 2 (am and pm) and once on the morning of Day 3. Three hours after the last dose animals were euthanized using CO2. Livers were perfused with a 0.25M sucrose solution, excised, and frozen. Livers were thawed and resuspended in buffer (2 mL/g, 0.1M Phosphate, pH 7.4, 1.0 mM glutathione, 0.5 mM EDTA, 20 μM leupeptin, 60 μM benzamidine, and 0.25M sucrose). The samples were homogenized and post nuclear microsomes were obtained by centrifugation: 1.000× g for 5 min. and the resulting supernatant, 100,000× g for 1 hr. Microsomes were resuspended in phosphate buffer to approximately 25 mg/mL and frozen at -70° C. until assayed for ACAT activity.
ACAT assays contained in a final volume of 200 μl:100 ug microsomal protein, 75 μM ^14 C-oleoyl-CoA (10,000 dpm/nmol), 0.75 mg bovine serum albumin, 0.1M phosphate buffer, pH 7.4, and 1 mM glutathione. All components, except the oleoyl-CoA, were preincubated for 15 min at 37° C. prior to the initiation of the reaction by the addition of oleoyl-CoA. The assay was terminated after 10 min and ACAT activity determined as described in section A above. The average specific activity of ACAT in the vehicle control group was 661 +/- 64 pmol/min/mg (SEM). The data (% inhibition) are expressed as 100 minus the % ACAT activity in livers from dosed animals versus those from a vehicle control group.

With `CCCCCC1C=CC(CCCCC)C(C(=O)Nc2c(C(C)C)cccc2C(C)C)S1` (centres unmarked) [Example 66, N-(2,6-diisopropylphenyl)-3,6-dihydro-3,6-dipentyl-2H-thiopyran-2-carboxamide], the pIC50 (as a rule, the IC50 on a negative log10 scale, so that one unit is a factor of ten) in assay [1] is above 5.70. In addition, the “Inhibition of ACAT, Ex Vivo Assay (% inhibition)” value in the assay with ACAT is “++ (>50%)”.
